Data on 16 molecules can be found in patent publication US6284914A, “Highly water-soluble metalloproteinase inhibitors” (Fuji Yakuhin Kogyo Kabushiki Kaisha, priority 1995, dated 2001).

SMILES strings stand for the structures. Where a name gives a salt, the structure may show the parent alone.

The nature of data set [1]: Measurement of Solubility in Water. To be noted: distilled water, 20±5° C., 30 min., checked by eye; for solubility at 0.5 h: water. Type of data set: physicochemical. On the procedure:
A compound of Examples or a comparative compound was added to distilled water and shaken vigorously at 20±5° C. for 30 seconds at 5 min. interval. After 30 min., it was checked by watching with eye whether the compound was dissolved or not.

The target in another data set is T1, collagenase (MMP-1) (Homo sapiens, UniProt P03956).
T1 construct: endogenous in cells; host or cells: human fibroblast
T1 sequence (P03956 100-469): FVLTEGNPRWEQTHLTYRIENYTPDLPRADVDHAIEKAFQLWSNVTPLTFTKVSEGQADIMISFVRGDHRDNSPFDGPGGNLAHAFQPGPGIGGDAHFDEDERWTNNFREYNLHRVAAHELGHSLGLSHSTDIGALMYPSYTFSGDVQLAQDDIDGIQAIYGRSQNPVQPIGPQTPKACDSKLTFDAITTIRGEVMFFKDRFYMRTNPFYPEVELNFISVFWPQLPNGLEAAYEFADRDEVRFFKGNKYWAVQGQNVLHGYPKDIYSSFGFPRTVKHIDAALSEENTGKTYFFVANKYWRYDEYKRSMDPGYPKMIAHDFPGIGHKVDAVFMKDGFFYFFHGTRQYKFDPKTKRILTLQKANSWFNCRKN
The data set is described as follows: Assay for Collagenase Inhibitory Activity (MMP-1). The data set is classed as biochemical. Particulars: fluorescein-labeled bovine type I collagen substrate, 35° C., 2 hours, pH 7.5; read-out: Inhibitory activities for matrix metalloproeinases (MMPs), MMP-1, IC50 value. As to the method:
(§1) Inhibitory activities of the compounds represented by the general formula (I) according to the invention for collagenase (metalloproteinase concerned with a tissue destruction) derived from human fibroblast were tested by the method of Y. Murawaki et al., [Journal of Hepatology, 18, p. 328-334 (1993)], and their inhibitory activities for stromelysin derived from human fibroblast were measured by the method of S. S. Twining et al., [Anal. Biochem., 143, p. 30 (1984)].
Inhibitory activities for collagenase (MMP-1) of the compounds of Examples and comparative compounds were measured by the method of Y. Murawaki et al., [Journal of Hepatology, 18, p. 328-334 (1993)]. The latent procollagenase was activated by incubating with mercury aminophenylacetate (2 mM) at 35° C. for 2 hours. The assay was done by using bovine type I collagen labeled with fluorescein as a substrate. The activated collagenase was added to the substrate solution (0.5 mg/ml) in Tris HCl buffer (50 mM, pH 7.5) containing sodium chloride (0.4 M) and calcium chloride (10 mM). The obtained solution was incubated at 35° C. for 2 hours. The enzyme digestion was stopped by the addition of o-phenanthroline (80 mM). The mixture was added with pig spleen elastase solution (25 μg/ml) in the above Tris HCl buffer, and incubated 37° C. for 10 min. The obtained solution was added with 70% ethanol and Tris HCl buffer (170 mM, pH 9.5) containing sodium chloride (0.61 M), whereby the indigested substrate was sedimented by centrifuging at 3000 g for 20 min. The supernatant was taken, and its intensity of fluorescence was determined by the excitation wavelength (495 nm) and the measured wavelength (520 nm), and the inhibitory activity was obtained. IC50 is a concentration of a compound assayed in the digesting enzyme, whereby the splitting of the substrate was decreased to 50% compared with that attained by the enzyme alone.

A further data set concerns the target T2, stromelysin (MMP-3) (Homo sapiens, UniProt P08254).
T2 construct: endogenous in cells; host or cells: human fibroblast
Nature of the data set: Assay for Stromelysin Inhibitory Activity (MMP-3). The data set is classed as biochemical. To be noted: fluorescein-labeled casein substrate, 37° C., 2 hours, pH 7.8; read-out: Inhibitory activities for matrix metalloproeinases (MMPs), MMP-3, IC50 value. On the procedure:
as §1
Inhibitory activities for stromelysin (MMP-3) of the compounds of Examples and comparative compounds were measured by the method of S. S. Twining et al., [Anal. Biochem., 143, p. 30 (1984)]. The latent prostromelysin was incubated with human plasmin (20 μg/ml) for the activation at 37° C. for 2 hours, and then the incubate was added with diisopropyl fluorophosphate solution (2.8 mg/ml) to stop the reaction. The assay was done by using casein labeled with fluorescein as the substrate. The activated stromelysin was added to a substrate solution (1 mg/ml) in Tris HCl buffer (50 mM, pH 7.8) containing calcium chloride (10 mM). The obtained solution was incubated at37° C. for 2 hours. The enzyme digestion forthesubstrate was stopped by adding 5% trichloroacetic acid. The indigested substrate was sedimented by centrifuging at 3000 g for 20 min. The supernatant was taken and added with Tris HCl buffer (0.5 M, pH 8.5), whereby its intensity of fluorescence was determined by the excitation wavelength (495 nm) and the measured wavelength (520 nm), and the inhibitory activity was obtained. IC50 is a concentration of a compound assayed in the digesting enzyme, whereby the splitting of the substrate was decreased to 50% compared with that attained by the enzyme alone.

T2 sequence (P08254 100-477): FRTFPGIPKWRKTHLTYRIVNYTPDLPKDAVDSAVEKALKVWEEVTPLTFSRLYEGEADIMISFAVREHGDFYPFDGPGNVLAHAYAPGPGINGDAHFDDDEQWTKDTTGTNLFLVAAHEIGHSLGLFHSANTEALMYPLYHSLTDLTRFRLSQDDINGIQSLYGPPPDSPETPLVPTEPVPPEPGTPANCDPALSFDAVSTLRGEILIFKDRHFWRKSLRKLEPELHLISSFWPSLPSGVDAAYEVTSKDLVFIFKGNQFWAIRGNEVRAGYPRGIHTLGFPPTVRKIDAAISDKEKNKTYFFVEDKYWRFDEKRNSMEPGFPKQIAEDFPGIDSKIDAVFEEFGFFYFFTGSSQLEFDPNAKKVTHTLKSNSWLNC

With `CNC(=O)[C@H](Cc1ccc(OS(=O)(=O)O)cc1)NC(=O)C(CC(=O)NO)CC(C)C` (single isomer, unassigned) [Example 1 (Isomer A), N-[4-(N-Hydroxyamino)-2(R or S)-isobutylsuccinyl]-O-sulfo-L-tyrosine-N-methylamide, Monosodium Salt], the solubility (as a rule, the dissolved amount per volume that the medium holds) at 0.5 h in data set [1] is more than 240 mg/mL.

In the case of `CC(C)C[C@@H](C(=O)N[C@@H](Cc1ccc(NC(=N)N)cc1)C(=O)Nc1ccccc1)C(CCCc1ccccc1)C(=O)NO` (stereo partly drawn) [Example 19, N-[4-(N-Hydroxyamino)-2(R)-isobutyl-3(RS)-(3-phenyltrimethylene)succinyl]-L-4'-guanidophenylalanine-N-phenylamide Monoacetate], the IC50 (commonly the midpoint of a concentration-inhibition curve) amounted to 8 nM at collagenase (MMP-1) and 10 nM at stromelysin (MMP-3).

As to `CNC(=O)[C@H](Cc1ccc(CNC(C)=N)cc1)NC(=O)[C@H](CC(C)C)C(CCCc1ccccc1)C(=O)NO` (single isomer, unassigned) [Example 10, N-[4-(N-Hydroxyamino)-2(R)-isobutyl-3(R or S)-(3-phenyltrimethylene)succinyl]-L-4'-acetimidoyliminomethylenephenylalanine-N-methylamide Monoacetate], the results for the IC50 at collagenase (MMP-1) and on stromelysin (MMP-3) were 7 nM and 15 nM, respectively.

For `CNC(=O)[C@H](Cc1ccc(O)cc1)NC(=O)[C@H](CC(C)C)[C@H](CCCc1ccccc1)C(=O)NO` [Comparative Compound 2, N-[4-(N-Hydroxyamino)-2(R)-isobutyl-3(S)-phenyltrimethylenesuccinyl]-L-tyrosine-N-methylamide, reference compound], the concentration for half-maximal inhibition (IC50) was determined as 0.15 nM at collagenase (MMP-1) and 8 nM at stromelysin (MMP-3). This molecule also returned a solubility at 0.5 h in data set [1] of less than 1 mg/mL.

In the case of `CC(C)C[C@@H](C(=O)N[C@@H](Cc1ccc(OS(=O)(=O)O)cc1)C(=O)Nc1cccc2ccccc12)C(CCCc1ccccc1)C(=O)NO` (stereo partly drawn) [Example 18, N-[4-(N-Hydroxyamino)-2(R)-isobutyl-3(RS)-(3-phenyltrimethylene)succinyl]-O-sulfo-L-tyrosine-N-1-naphthylamide, Monosodium Salt], the IC50 on collagenase (MMP-1) is 500 nM; on stromelysin (MMP-3), 6 nM.

In the case of `COc1ccc(NC(=O)[C@H](Cc2ccc(OS(=O)(=O)O)cc2)NC(=O)[C@H](CC(C)C)C(CCCc2ccccc2)C(=O)NO)cc1` (stereo partly drawn) [Example 7, N-[4-(N-Hydroxyamino)-2(R)-isobutyl-3(RS)-(3-phenyltrimethylene)succinyl]-O-sulfo-L-tyrosine-N-p-methoxyphenylamide, Monosodium Salt], the IC50 at collagenase (MMP-1) stood at 8 nM; at stromelysin (MMP-3) it was 10 nM. For the same molecule, the solubility at 0.5 h in data set [1] worked out at 100 mg/mL.

For `CNC(=O)[C@H](Cc1ccc(S(=O)(=O)O)cc1)NC(=O)C(CC(=O)NO)CC(C)C` (stereo partly drawn) [Example 2, N-[4-(N-Hydroxyamino)-2(RS)-isobutylsuccinyl]-L-4'-sulfophenylalanine-N-methylamide, Monosodium Salt], the IC50 came out at 4.2 nM at collagenase (MMP-1) and 200 nM on stromelysin (MMP-3). The solubility at 0.5 h in data set [1] was more than 250 mg/mL.

With `CNC(=O)[C@H](Cc1ccc(OS(=O)(=O)O)cc1)NC(=O)C(CC(=O)NO)CC(C)C` (single isomer, unassigned) [Example 1 (Isomer B), N-[4-(N-Hydroxyamino)-2(R or S)-isobutylsuccinyl]-O-sulfo-L-tyrosine-N-methylamide, Monosodium Salt], the IC50 was 5.1 nM at collagenase (MMP-1) and 500 nM on stromelysin (MMP-3).

For `CNC(=O)[C@H](Cc1ccc(CNC(C)=O)cc1)NC(=O)[C@H](CC(C)C)C(CCCc1ccccc1)C(=O)NO` (stereo partly drawn) [Example 13, N-[4-(N-Hydroxyamino)-2(R)-isobutyl-3(RS)-(3-phenyltrimethylene)succinyl]-L-4'-acetamidomethylenephenylalanine-N-methylamide], the figures for the IC50 on collagenase (MMP-1) and on stromelysin (MMP-3) were 4 nM and 10 nM, respectively.

In the case of `CNC(=O)[C@H](Cc1ccc(C(=N)N)cc1)NC(=O)[C@H](CC(C)C)C(CCCc1ccccc1)C(=O)NO` (single isomer, unassigned) [Example 17, N-[4-(N-Hydroxyamino)-2(R)-isobutyl-3(R or S)-(3-phenyltrimethylene)succinyl]-L-4'-amidinophenylalanine-N-methylamideMonoacetate], the IC50 on collagenase (MMP-1) and on stromelysin (MMP-3) was 5 nM each time.

Molecule `CNC(=O)[C@H](Cc1ccc(OC)cc1)NC(=O)[C@@H](CC(=O)NO)CC(C)C` [Comparative Compound 1, N-[4-(N-Hydroxyamino)-2(R)-isobutylsuccinyl]-O-methyl-L-tyrosine-N-methylamide, reference compound] gave a solubility at 0.5 h in data set [1] of less than 1 mg/mL. Besides, at stromelysin (MMP-3), the IC50 stood at 110 nM.

For the molecule `CNC(=O)[C@H](Cc1ccc(OS(=O)(=O)O)cc1)NC(=O)[C@H](CC(C)C)C(CCCc1ccccc1)C(=O)NO` (single isomer, unassigned) [Example 3 (Isomer A), N-[4-(N-Hydroxyamino)-2(R)-isobutyl-3(R or S)-(3-phenyltrimethylene)succinyl]-O-sulfo-L-tyrosine-N-methylamide, Monosodium Salt], the solubility at 0.5 h in data set [1] is more than 100 mg/mL.

In the case of `CNC(=O)[C@H](Cc1ccc(S(=O)(=O)O)cc1)NC(=O)[C@H](CC(C)C)C(CSc1cccs1)C(=O)NO` (single isomer, unassigned) [Example 5 (Isomer B), N-[4-(N-Hydroxyamino)-2(R)-isobutyl-3(R or S)-(thienylthiomethylene)succinyl]-L-4'-sulfophenylalanine-N-methylamide, Monosodium Salt], the Solubility in water in data set [1] (Monosodium Salt) was more than 300 mg/mL.

In the case of `CNC(=O)[C@H](Cc1ccc(CNC(=N)c2ccccc2)cc1)NC(=O)[C@H](CC(C)C)C(CCCc1ccccc1)C(=O)NO` (stereo partly drawn) [Example 12, N-[4-(N-Hydroxyamino)-2(R)-isobutyl-3(RS)-(3-phenyltrimethylene)succinyl]-L-4'-benzimidoyliminomethylenephenylalanine-N-methylamide Monoacetate], the IC50 on collagenase (MMP-1) and at stromelysin (MMP-3) was 10 nM throughout.

For the molecule `CNC(=O)[C@H](Cc1ccccc1)NC(=O)[C@H](CC(C)C)[C@H](CSc1cccs1)C(=O)NO` [Comparative Compound 3, N-[4-(N-Hydroxyamino)-2(R)-isobutyl-3(S)-thienyltiomethylenesuccinyl]-L-phenylalanine-N-methylamide, reference compound], in data set [1], the solubility at 0.5 h is less than 1 mg/mL.

On to `CNC(=O)[C@H](Cc1ccc(CNC(=N)N)cc1)NC(=O)[C@H](CC(C)C)C(CCCc1ccccc1)C(=O)NO` (stereo partly drawn) [Example 14, N-[4-(N-Hydroxyamino)-2(R)-isobutyl-3(RS)-(3-phenyltrimethylene)succinyl]-L-4'-guanidomethylenephenylalanine-N-methylamide Monoacetate], for which the IC50 at collagenase (MMP-1) worked out at 4 nM; at stromelysin (MMP-3), 10 nM.
